Experiment [1] deals with BXF T24. The experiment can be described thus: In vitro 3D clonogenic assay (colony formation in semi-solid medium). Type of experiment: cell-based, human. Conditions: read-out: Absolute IC50 values. As to the method: (§1) In the present study, terconazole and cisplatin were evaluated for their ability to inhibit anchorage independent growth and ex vivo colony formation of tumor cells in semi-solid medium. The compounds were tested against 5 human tumor cell lines of bladder cancer. Test concentrations ranged, from 0.0316 μM to 316.2 μM (terconazole), or from 0.00316 μM to 100 μM (cisplatin).
(§2) Terconazole and the reference compound cisplatin were investigated for anticancer activity ex vivo in five human tumor cell lines of bladder cancer. Tests were carried out using a 3D clonogenic assay in 96-well format with image based read-out. The aim of the study was to investigate antitumor potency and tumor type selectivity of the compound.
Clonogenic Assay Procedure: The clonogenic assay was carried out in a 96 well plate format using ultra low attachment plates. […] Cultures were incubated at 37° C. and 7.5% CO2 in a humidified atmosphere for 8 to 13 days and monitored closely for colony growth using an inverted microscope. […]

The target in a further experiment is T1, rat spleen HO-1 (Rattus norvegicus, UniProt P06762).
T1 construct: host or cells: rat spleen
T1 sequence (P06762 1-289): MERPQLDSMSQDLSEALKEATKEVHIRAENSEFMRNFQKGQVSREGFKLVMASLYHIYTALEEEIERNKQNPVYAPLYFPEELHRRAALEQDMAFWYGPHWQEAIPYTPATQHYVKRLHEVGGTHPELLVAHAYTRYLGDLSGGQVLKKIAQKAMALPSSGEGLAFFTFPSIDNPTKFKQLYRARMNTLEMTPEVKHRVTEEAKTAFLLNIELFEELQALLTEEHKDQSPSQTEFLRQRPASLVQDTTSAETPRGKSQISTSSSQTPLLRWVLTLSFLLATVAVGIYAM
Conditions: reported in literature; read-out: IC50, inhibition of rat spleen HO-1 activity; cited from earlier work.

Experiment [2] relates to BXF 1218. The experiment can be described thus: In vitro 2D assay, CellTiter-Blue Cell Viability Assay. Type of experiment: cell-based. Particulars: Homo sapiens, BXF 1218, 96 h, read-out: Absolute IC50 values. Here is the method: (§3) The in-vitro anti-tumor activity of terconazole was assessed in five selected human bladder cancer cell lines. The test compounds were applied at 9 concentrations in half-log increments. As a reference compound cisplatin was tested in parallel. Cells were treated for 96 h with the test compounds. Anti-tumor activity was assessed by using the CellTiter-Blue® Cell Viability Assay. Potency is expressed as absolute IC50 and relative IC50 values, calculated by non-linear regression analysis.
(§4) Tumor Cell Lines: In the present study the human bladder cancer cell lines BXF 1036, BXF 1218, BXF 1352, 5637 and T24 were used. BXF 1036, BXF 1218 and BXF 1352 were established at Oncotest from the corresponding human patient derived xenograft. T24 was purchased from ATCC (Rockville, Md., USA) and 5637 was from DSMZ (Braunschweig, Germany). Authenticity of cell lines was confirmed at the DSMZ by STR (short tandem repeat) analysis, a PCR based DNA-fingerprinting methodology. Cell lines were routinely passaged once or twice weekly and maintained in culture for up to 20 passages. All cells were grown at 37° C. in a humidified atmosphere with 5% CO2 in RPMI 1640 medium (25 mM HEPES, with L-glutamine, #FG1385, Biochrom, Berlin, Germany) supplemented with 10% (v/v) fetal calf serum (Sigma, Taufkirchen, Germany) and 0.1 mg/mL gentamicin (Life Technologies, Karlsruhe, Germany).
(§5) Cell Proliferation Assay: The CellTiter-Blue® Cell Viability Assay (#G8081, Promega) was used according to manufacturer's instructions. Briefly, cells were harvested from exponential phase cultures, […] on the cell line's growth rate. After a 24 h recovery period to allow the cells to resume exponential growth, test compounds were added. Compounds were applied at 9 concentrations in half-log increments in duplicate and treatment continued for 96 h. After 96 h treatment of cells, 20 μL/well CellTiter-Blue® reagent was added.
(§6) Following an incubation period of up to four hours, fluorescence (FU) was measured by using the Enspire Multimode Plate Reader (excitation k=531 nm, emission k=615 nm). For calculations, the mean values of duplicate/sixfold (untreated control) data were used. Sigmoidal concentration-response curves were fitted to the data points (T/C values) obtained for each cell line using 4 parameter non-linear curve fit (Oncotest Warehouse Software).

For experiment [3], the system named is BXF 5637. Described as above. The experiment is classed as cell-based. Particulars: Homo sapiens, BXF 5637, 96 h, read-out: Absolute IC50 values. As to the method: as §3, §4, §5, §6
Experiment [4] has as its system BXF T24. The experiment is described as above. The experiment is classed as cell-based. Conditions: Homo sapiens, BXF T24, 96 h, read-out: Absolute IC50 values. As to the method:
as §3, §4, §5, §6

For experiment [5], the system named is BXF 1352. The experiment is described as above. The experiment is classed as cell-based. Particulars: Homo sapiens, BXF 1352, 96 h, read-out: Absolute IC50 values. As to the method:
as §3, §4, §5, §6

Experiment [6] has as its system BXF 1036. The experiment is described as above. The experiment is classed as cell-based. Conditions: Homo sapiens, BXF 1036, 96 h, read-out: Absolute IC50 values. Here is the method:
as §3, §4, §5, §6

Experiment [7] relates to BXF 1218. The experiment can be described thus: In vitro 3D clonogenic assay (colony formation in semi-solid medium). Type of experiment: cell-based. Conditions: Homo sapiens, read-out: Absolute IC50 values. As to the method: as §1, §2
(§7) Clonogenic Assay Procedure: The clonogenic assay was carried out in a 96 well plate format using ultra low attachment plates. For each test, cells were prepared as described above and assay plates were prepared as follows: each test well contained a layer of semi-solid medium with tumor cells (50 and a second layer of medium supernatant with or without test compound (100 The cell layer consisted of 2·10^3 to 3·10^3 tumor cells per well, which were seeded in 50 μL/well cell culture medium (IMDM, supplemented with 20% (v/v) fetal calf serum, 0.01% (w/v) gentamicin, and 0.4% (w/v) agar. After 24 hours the test compounds were added after serial dilution in cell culture medium, and left on the cells for the duration of the experiment (continuous exposure, 100 μl drug overlay). Every plate included six untreated control wells and drug-treated groups in duplicate at 9 concentrations. Cultures were incubated at 37° C. and 7.5% CO2 in a humidified atmosphere for 8 to 13 days and monitored closely for colony growth using an inverted microscope. Within this period, ex vivo tumor growth led to the formation of colonies with a diameter of >50 μm. At the time of maximum colony formation, counts were performed with an automatic image analysis system (Bioreader 5000-Wa Biosys GmbH). 48 hours prior to evaluation, vital colonies were stained with a sterile aqueous solution of 2-(4-iodophenyl)-3-(4-nitrophenyl)-5-phenyltetrazolium chloride (1 mg/ml, 100 μl/well)

The subject of experiment [8] is BXF 5637. Described as above. Type of experiment: cell-based. Conditions: Homo sapiens, read-out: Absolute IC50 values. Here is the method:
as §1, §2, §7

Experiment [9] deals with BXF 1352. Described as above. Type of experiment: cell-based. Particulars: Homo sapiens, read-out: Absolute IC50 values. Here is the method:
as §1, §2, §7

The test system of experiment [10] is BXF 1036. Described as above. Type of experiment: cell-based. Particulars: Homo sapiens, read-out: Absolute IC50 values. As to the method: as §1, §2, §7
For the next experiment, the system named is BXF 1036L. The experiment can be described thus: In vitro combination study, 3D clonogenic assay, 5x5 matrix. The experiment is classed as cell-based. Particulars: Homo sapiens, monotherapy controls of 5x5 matrix, soft agar, read-out: IC50, colony formation, single agent. Here is the method:
(§8) Summary: Terconazole was tested alone and in combination with cisplatin in order to investigate the ability to inhibit tumor cell growth of bladder cancer cell lines in a 5×5 matrix combination format. Efficacy of the combinations was assessed by measuring anchorage-independent growth and in vitro tumor colony formation using a 3D clonogenic assay in cell lines BXF 1036L, BXF 1218L, and BXF T24.
(§9) The objective of this study was to assess anti-tumor efficacy of CIPDE033 and CIPDE034 in combination with cisplatin in a 5×5 matrix combination format against various bladder cancer cell lines. Efficacy of the combinations was assessed by measuring anchorage-independent growth and in vitro tumor colony formation using a 3D clonogenic assay in cell lines BXF 1036L, BXF 1218L, and BXF T24. […]
(§10) Cultivation of Cell Lines: Cell lines were routinely passaged once or twice weekly and maintained in culture for up to 20 passages. […] The percentage of viable cells was determined in a Neubauer-hemocytometer using trypan blue exclusion.
(§11) 3D Clonogenic Assay Procedure: The clonogenic assay was carried out in a 96 well plate format using ultra low attachment plates. […] Cultures were incubated at 37° C. and 7.5% CO2 in a humidified atmosphere for 8 to 13 days and monitored closely for colony growth using an inverted microscope. […]

Experiment [11] concerns BXF T24. Described as above. Type of experiment: cell-based. Particulars: Homo sapiens; monotherapy controls of 5x5 matrix, BXF T24, soft agar; read-out: IC50, colony formation, single agent. As to the method: as §8, §9, §10, §11
Another experiment deals with T-24. The experiment can be described thus: In vitro anticancer activity, bladder carcinoma efficacy models (cytotoxicity/clonogenic). The experiment is classed as cell-based, human. Conditions: T-24, varied concentrations. Here is the method:
(§12) Human bladder cancer cell lines HTB-5, HT-1376 and T-24 were purchased from American Type Culture Collection, USA. Cell lines HTB-5 and HT1376 were routinely cultured in Eagle's Minimum Essential Medium with 10% fetal bovine serum and T-24 in McCoy's 5A medium with 10% fetal bovine serum. All cell lines were maintained at 37° C. in a humidified atmosphere containing 5% CO2.
(§13) In vitro cytotoxicity assay: Cells were plated in 96-well cell culture plates (4×10^3 cells/well) and were treated with drugs at various concentrations. Treated cells were maintained at 37° C. in 5% CO2 for 48 and 72 hrs. After the incubation antiproliferative activity of test compounds was measured using ProMega Cell Titer aqueous one solution cell proliferation assay kit, viz. CellTiter 96® AQueous One Solution Reagent. Cells were incubated for 1-4 hours at 37° C., 5% CO2 incubator and absorbance was measured at 490 nm using a plate reader. IC50 values were determined by plotting compound concentration versus cell viability.
(§14) Clonogenic assay: bladder cancer cell lines viz HTB-5, HT-1376 and T-24 cells were plated at different densities i.e. 300 cells/well and 400 cells/well respectively in 3 ml volume per well into six-well plates and incubated overnight at 37° C. in a 5% CO2 incubator. […] Medium with drug was then replaced with medium without drug and plates were further incubated till visible colonies appeared (approximately for 12-14 days). Cells were then fixed with methanol:glacial acetic acid (2:1) and stained with 0.5% crystal violet. After staining for 2-3 min, plates were rinsed twice with D/W, dried and images were captured.

Another experiment relates to HTB-5. Described as above. Conditions: HTB-5, varied concentrations. Type of experiment: cell-based, human. As to the method: as §12, §13, §14
For another experiment, the system named is HT1376. The experiment is described as above. The experiment is classed as cell-based, human. Conditions: HT1376, varied concentrations. As to the method:
as §12, §13, §14

Experiment [12] deals with five selected human bladder cancer cell lines. The experiment can be described thus: In vitro 2D assay, CellTiter-Blue Cell Viability Assay, mean over panel. The experiment is classed as cell-based. Particulars: 96 h, read-out: Geometric Mean Absolute IC50 values. As to the method:
as §3
Tumor Cell Lines: In the present study the human bladder cancer cell lines BXF 1036, BXF 1218, BXF 1352, 5637 and T24 were used. BXF 1036, BXF 1218 and BXF 1352 were established at Oncotest from the corresponding human patient derived xenograft. T24 was purchased from ATCC (Rockville, Md., USA) and 5637 was from DSMZ (Braunschweig, Germany). Authenticity of cell lines was confirmed at the DSMZ by STR (short tandem repeat) analysis, a PCR based DNA-fingerprinting methodology. Cell lines were routinely passaged once or twice weekly and maintained in culture for up to 20 passages. […]
Following an incubation period of up to four hours, fluorescence (FU) was measured by using the Enspire Multimode Plate Reader (excitation k=531 nm, emission k=615 nm). […]

For experiment [13], the system named is 5 human tumor cell lines of bladder cancer. The experiment can be described thus: In vitro 3D clonogenic assay, panel summary. The experiment is classed as cell-based. Conditions: for IC50: Homo sapiens. As to the method: as §1, §2, §7

Each structure is given as a SMILES string. Where two headings read alike, the source gives them in different places.

As for `N.N.[Cl][Pt][Cl]` [Cisplatin, cisplatin], the IC50 with BXF T24 [1] is 53 µM.

Turning to `CC(C)N1CCN(c2ccc(OC[C@@H]3CO[C@@](Cn4cncn4)(c4ccc(Cl)cc4Cl)O3)cc2)CC1` (racemic) [Terconazole], the IC50 in the experiment on BXF T24 [1] (Homo sapiens) was 33.1 µM; on rat spleen HO-1, 0.41 ± 0.01 µM; in the experiment with BXF 1218 [2], 46.9 µM; in the experiment on BXF 5637 [3], 38.4 µM; in the experiment with BXF T24 [4], 41.5 µM; in the experiment on BXF 1352 [5], 45.9 µM. Besides, the IC50 is 29.4 µM in the experiment with BXF 1036 [6]; 40.3 µM in the experiment on BXF 1218 [7]; 30.8 µM with BXF 5637 [8]; 36.6 µM with BXF 1352 [9]; 29.7 µM with BXF 1036 [10]; 27.1 µM in the experiment on BXF 1036L. In addition, the half-maximal inhibitory concentration (IC50) in the experiment with BXF T24 [11] was 59.8 µM; in [12], 39.9 µM; in experiment [13] (read-out: mean relative IC50 value) it was 33.5 µM; in experiment [13] (3D clonogenic assay, colony formation, read-out: IC50 values, range over all bladder cancer cell lines tested), 29.6 to 40.1 µM; in [13] (3D clonogenic assay, five cell lines, read-out: Geometric Mean Absolute IC50 values), 33.9 µM. Also, the “anticancer activity in vitro” value with T-24, with HTB-5 and in the experiment with HT1376 was “significant anticancer activity” in each case. The “Bottom plateaus of the concentration-effect curves” value in experiment [13] (3D clonogenic assay, responding tumor models) amounted to 0%.
